Assay results taken from US20240165244A1 (Prelude Therapeutics Incorporated, priority 2022, published 2024).

Columns and labels:
SMARCA2 = biological target: T1, SMARCA2 (Homo sapiens, UniProt P51531); experiment: SMARCA2 HiBiT degradation assay in HeLa cells; type: cell-based; conditions: 18 hours, highest concentration 10 μM
T1 construct: SMARCA2-HiBiT knock-in Hela monoclonal cell (CS302366); host or cells: HeLa monoclonal cells with heterozygous HiBiT knock-in at the endogenous SMARCA2 locus
Method in brief: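 Degradation was read as Nano-Glo HiBiT lytic luminescence (30-60 min, RT) and fitted to curves. Compounds in 3-fold dilutions up to 10 μM were applied for 18 h at 37 °C. Cells were 2500/well monoclonal HeLa with a heterozygous C-terminal HiBiT tag on SMARCA2.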

SMARCA4 = biological target: T2, SMARCA4 (Homo sapiens, UniProt P51532); experiment: SMARCA4 HiBiT degradation assay in HeLa cells; type: cell-based; conditions: 18 hours, highest concentration 10 μM
T2 construct: SMARCA4-HiBiT knock-in Hela monoclonal cell (CS3023226); host or cells: HeLa monoclonal cells with heterozygous HiBiT knock-in at the endogenous SMARCA4 locus
Method in brief: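 HeLa monoclonal cells with HiBiT knocked into SMARCA4 were seeded at 2500 cells/well, dosed with compound and incubated 18 hours at 37° C. HiBiT signal reported remaining SMARCA4 protein, and values came from curve fitting.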

T1 sequence (P51531 whole entry): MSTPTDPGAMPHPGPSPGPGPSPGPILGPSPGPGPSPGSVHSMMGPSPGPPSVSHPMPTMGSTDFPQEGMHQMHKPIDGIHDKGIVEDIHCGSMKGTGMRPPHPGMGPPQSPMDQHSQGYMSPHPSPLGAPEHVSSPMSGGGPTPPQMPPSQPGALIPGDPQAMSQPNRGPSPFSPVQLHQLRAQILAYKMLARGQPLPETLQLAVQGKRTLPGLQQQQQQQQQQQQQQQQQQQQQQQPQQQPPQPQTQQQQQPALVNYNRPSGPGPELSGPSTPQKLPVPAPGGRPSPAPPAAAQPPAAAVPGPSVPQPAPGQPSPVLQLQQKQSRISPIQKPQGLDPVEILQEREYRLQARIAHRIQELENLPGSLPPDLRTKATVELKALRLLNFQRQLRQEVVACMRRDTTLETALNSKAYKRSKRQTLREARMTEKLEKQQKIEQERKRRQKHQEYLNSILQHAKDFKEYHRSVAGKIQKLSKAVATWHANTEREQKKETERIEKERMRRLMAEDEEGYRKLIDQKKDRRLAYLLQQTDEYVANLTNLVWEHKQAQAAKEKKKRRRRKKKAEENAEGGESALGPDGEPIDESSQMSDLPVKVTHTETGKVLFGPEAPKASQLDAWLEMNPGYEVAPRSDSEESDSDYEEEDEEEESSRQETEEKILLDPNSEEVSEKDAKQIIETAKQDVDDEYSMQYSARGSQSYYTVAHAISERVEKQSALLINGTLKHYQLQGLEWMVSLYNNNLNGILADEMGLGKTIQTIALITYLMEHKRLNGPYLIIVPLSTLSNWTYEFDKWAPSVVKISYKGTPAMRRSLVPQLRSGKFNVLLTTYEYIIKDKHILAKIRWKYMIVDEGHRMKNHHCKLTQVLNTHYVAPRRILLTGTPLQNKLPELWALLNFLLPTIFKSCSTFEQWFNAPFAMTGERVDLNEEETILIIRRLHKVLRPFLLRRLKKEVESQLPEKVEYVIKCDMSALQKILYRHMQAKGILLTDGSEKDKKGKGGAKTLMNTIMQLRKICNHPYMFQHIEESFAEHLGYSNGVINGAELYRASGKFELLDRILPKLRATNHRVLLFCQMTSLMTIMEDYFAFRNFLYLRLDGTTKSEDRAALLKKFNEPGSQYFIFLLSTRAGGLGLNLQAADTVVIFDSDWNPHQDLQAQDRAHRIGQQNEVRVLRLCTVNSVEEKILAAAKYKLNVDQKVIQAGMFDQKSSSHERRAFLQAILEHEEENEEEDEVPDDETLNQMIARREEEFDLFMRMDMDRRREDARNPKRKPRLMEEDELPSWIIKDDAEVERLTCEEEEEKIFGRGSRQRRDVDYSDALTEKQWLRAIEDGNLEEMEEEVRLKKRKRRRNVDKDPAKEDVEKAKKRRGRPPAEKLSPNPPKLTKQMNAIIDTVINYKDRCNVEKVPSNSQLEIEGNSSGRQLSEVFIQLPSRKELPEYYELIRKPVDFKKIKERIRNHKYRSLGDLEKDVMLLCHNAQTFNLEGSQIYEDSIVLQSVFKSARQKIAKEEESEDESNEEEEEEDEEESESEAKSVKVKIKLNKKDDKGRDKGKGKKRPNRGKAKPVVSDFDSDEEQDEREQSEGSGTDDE
T2 sequence (P51532 whole entry): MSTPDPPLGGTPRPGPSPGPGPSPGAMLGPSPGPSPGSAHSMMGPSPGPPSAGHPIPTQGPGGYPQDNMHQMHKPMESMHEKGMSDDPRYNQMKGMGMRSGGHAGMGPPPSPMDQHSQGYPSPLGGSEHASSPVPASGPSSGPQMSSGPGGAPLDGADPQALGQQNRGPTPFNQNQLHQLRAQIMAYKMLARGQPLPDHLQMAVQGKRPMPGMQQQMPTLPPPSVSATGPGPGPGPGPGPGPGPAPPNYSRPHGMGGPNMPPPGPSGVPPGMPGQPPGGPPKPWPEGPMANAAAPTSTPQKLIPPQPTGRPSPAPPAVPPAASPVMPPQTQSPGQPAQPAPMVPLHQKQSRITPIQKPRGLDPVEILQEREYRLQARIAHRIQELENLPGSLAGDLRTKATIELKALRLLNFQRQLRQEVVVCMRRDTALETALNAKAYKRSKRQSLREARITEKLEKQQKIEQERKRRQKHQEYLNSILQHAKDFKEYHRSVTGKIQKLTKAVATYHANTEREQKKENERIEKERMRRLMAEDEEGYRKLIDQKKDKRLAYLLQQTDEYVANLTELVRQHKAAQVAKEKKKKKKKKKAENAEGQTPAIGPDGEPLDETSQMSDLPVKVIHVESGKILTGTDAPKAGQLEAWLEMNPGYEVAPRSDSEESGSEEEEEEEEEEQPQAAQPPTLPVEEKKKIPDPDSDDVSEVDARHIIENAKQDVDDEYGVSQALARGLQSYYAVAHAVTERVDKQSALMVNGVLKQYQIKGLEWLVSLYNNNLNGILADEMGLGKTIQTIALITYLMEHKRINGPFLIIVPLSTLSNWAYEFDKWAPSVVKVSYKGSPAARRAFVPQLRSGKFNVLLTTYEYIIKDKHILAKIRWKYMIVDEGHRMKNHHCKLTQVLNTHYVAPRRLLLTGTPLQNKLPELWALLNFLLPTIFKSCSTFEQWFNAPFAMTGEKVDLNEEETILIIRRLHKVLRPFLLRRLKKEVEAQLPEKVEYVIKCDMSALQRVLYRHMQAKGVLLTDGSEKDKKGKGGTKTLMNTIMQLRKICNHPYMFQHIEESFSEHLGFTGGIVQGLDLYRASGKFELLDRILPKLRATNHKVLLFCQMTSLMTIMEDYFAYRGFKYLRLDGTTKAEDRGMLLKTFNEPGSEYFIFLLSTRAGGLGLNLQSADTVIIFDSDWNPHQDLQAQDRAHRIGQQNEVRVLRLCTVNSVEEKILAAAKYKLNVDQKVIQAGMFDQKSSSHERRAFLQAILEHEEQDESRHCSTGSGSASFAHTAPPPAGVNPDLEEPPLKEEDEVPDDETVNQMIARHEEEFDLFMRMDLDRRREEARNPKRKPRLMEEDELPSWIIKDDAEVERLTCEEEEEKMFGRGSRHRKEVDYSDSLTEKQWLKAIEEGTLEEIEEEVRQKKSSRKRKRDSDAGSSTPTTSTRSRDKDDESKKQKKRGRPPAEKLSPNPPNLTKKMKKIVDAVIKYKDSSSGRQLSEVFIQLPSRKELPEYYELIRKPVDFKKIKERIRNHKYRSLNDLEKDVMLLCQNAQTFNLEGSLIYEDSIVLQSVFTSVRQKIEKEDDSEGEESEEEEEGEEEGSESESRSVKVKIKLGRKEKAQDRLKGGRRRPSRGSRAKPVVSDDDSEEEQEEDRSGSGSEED

Row | Compound | DC50 (SMARCA2) [µM] | Dmax (SMARCA2) [%] | DC50 (SMARCA4) [µM] | Dmax (SMARCA4) [%]
1 | O=C1CCC(N2Cc3ccc(N4CCN(Cc5cnc(O[C@H]6CN7c8cc(-c9cccc(F)c9O)nnc8NC[C@@]7(C(F)F)C6)c(Cl)c5)CC4)cc3C2=O)C(=O)N1 (stereo partly drawn) [Example 85, 3-(6-(4-((5-chloro-6-(((6aR,8R)-6a-(difluoromethyl)-2-(3-fluoro-2-hydroxyphenyl)-5,6,6a,7,8,9-hexahydropyrrolo[1′,2′:4,5]pyrazino[2,3-c]pyridazin-8-yl)oxy)pyridin-3-yl)methyl)piperazin-1-yl)-1-oxoisoindolin-2-yl)piperidine-2,6-dione] | < 0.1 | > 75 | < 0.1 | 50 to 75
2 | CC[C@@]12CNc3nnc(-c4cccc(F)c4O)cc3N1C[C@H](Oc1ncc(CN3CCN(c4ccc5c(c4)C(=O)N(C4CCC(=O)NC4=O)C5)CC3)c(C)c1F)C2 (stereo partly drawn) [Example 61, 3-(6-(4-((6-(((6aR,8R)-6a-ethyl-2-(3-fluoro-2-hydroxyphenyl)-5,6,6a,7,8,9-hexahydropyrrolo[1′,2′:4,5]pyrazino[2,3-c]pyridazin-8-yl)oxy)-5-fluoro-4-methylpyridin-3-yl)methyl)piperazin-1-yl)-1-oxoisoindolin-2-yl)piperidine-2,6-dione] | < 0.1 | > 75 | < 0.1 | 50 to 75
3 | O=C1CCC(N2Cc3ccc(N4CCN(Cc5ccc(O[C@@H]6C[C@@H]7CNc8nnc(-c9cc(F)cc(F)c9O)cc8N7C6)c(Cl)c5)CC4)cc3C2=O)C(=O)N1 (stereo partly drawn) [Example 6, 3-(6-(4-(3-chloro-4-(((6aR,8R)-2-(3,5-difluoro-2-hydroxyphenyl)-5,6,6a,7,8,9-hexahydropyrrolo[1′,2′:4,5]pyrazino[2,3-c]pyridazin-8-yl)oxy)benzyl)piperazin-1-yl)-1-oxoisoindolin-2-yl)piperidine-2,6-dione] | < 0.1 | > 75 | < 0.1 | > 75
4 | O=C1CC[C@H](N2Cc3ccc(N4CCN(Cc5ccc(O[C@@H]6C[C@@H]7CNc8nnc(-c9cccc(Cl)c9O)cc8N7C6)cc5)CC4)cc3C2=O)C(=O)N1 [Example 25, (S)-3-(6-(4-(4-(((6aR,8R)-2-(3-chloro-2-hydroxyphenyl)-5,6,6a,7,8,9-hexahydropyrrolo[1′,2′:4,5]pyrazino[2,3-c]pyridazin-8-yl)oxy)benzyl)piperazin-1-yl)-1-oxoisoindolin-2-yl)piperidine-2,6-dione] | < 0.1 | > 75 | < 0.1 | > 75
5 | Cc1nc(CN2CCC(c3ccc4c(c3)C(=O)N([C@H]3CCC(=O)NC3=O)C4)CC2)cnc1O[C@H]1CN2c3cc(-c4cccc(F)c4O)nnc3NC[C@]2(C(F)F)C1 [Example 91, (S)-3-(6-(1-((5-(((6aS,8R)-6a-(difluoromethyl)-2-(3-fluoro-2-hydroxyphenyl)-5,6,6a,7,8,9-hexahydropyrrolo[1′,2′:4,5]pyrazino[2,3-c]pyridazin-8-yl)oxy)-6-methylpyrazin-2-yl)methyl)piperidin-4-yl)-1-oxoisoindolin-2-yl)piperidine-2,6-dione] | < 0.1 | > 75 | < 0.1 | 50 to 75
6 | O=C1CCC(N2Cc3ccc(N4CCN(Cc5ccc(O[C@@H]6C[C@@H]7CNc8nnc(-c9cc(F)cc(F)c9O)cc8N7C6)cn5)CC4)cc3C2=O)C(=O)N1 (stereo partly drawn) [Example 3, 3-(6-(4-((5-(((6aR,8R)-2-(3,5-difluoro-2-hydroxyphenyl)-5,6,6a,7,8,9-hexahydropyrrolo[1′,2′:4,5]pyrazino[2,3-c]pyridazin-8-yl)oxy)pyridin-2-yl)methyl)piperazin-1-yl)-1-oxoisoindolin-2-yl)piperidine-2,6-dione] | < 0.1 | > 75 | < 0.1 | 50 to 75
7 | Cc1cc(CN2CCC(c3ccc4c(c3)C(=O)N([C@H]3CCC(=O)NC3=O)C4)CC2)ncc1O[C@H]1CN2c3cc(-c4cccc(C)c4O)nnc3NC[C@]2(C(F)F)C1 [Example 94, (S)-3-(6-(1-((5-(((6aS,8R)-6a-(difluoromethyl)-2-(2-hydroxy-3-methylphenyl)-5,6,6a,7,8,9-hexahydropyrrolo [1′,2′:4,5]pyrazino[2,3-c]pyridazin-8-yl)oxy)-4-methylpyridin-2-yl)methyl)piperidin-4-yl)-1-oxoisoindolin-2-yl)piperidine-2,6-dione] | < 0.1 | 50 to 75 | > 1 | < 50
8 | Cc1cc(O[C@H]2CN3c4cc(-c5cccc(F)c5O)nnc4NC[C@@]3(C)C2)cnc1CN1CCN(c2ccc3c(c2)C(=O)N([C@H]2CCC(=O)NC2=O)C3)CC1 [Example 81, (S)-3-(6-(4-((5-(((6aR,8R)-2-(3-fluoro-2-hydroxyphenyl)-6a-methyl-5,6,6a,7,8,9-hexahydropyrrolo[1′,2′:4,5]pyrazino[2,3-c]pyridazin-8-yl)oxy)-3-methylpyridin-2-yl)methyl)piperazin-1-yl)-1-oxoisoindolin-2-yl)piperidine-2,6-dione] | < 0.1 | > 75 | 0.1 to 1 | < 50
9 | Cc1cc(CN2CCN(c3ccc4c(c3)C(=O)N([C@H]3CCC(=O)NC3=O)C4)CC2)c(C)nc1O[C@H]1CN2c3cc(-c4cccc(F)c4O)nnc3NC[C@@]2(C(F)F)C1 [Example 87, (S)-3-(6-(4-((6-(((6aR,8R)-6a-(difluoromethyl)-2-(3-fluoro-2-hydroxyphenyl)-5,6,6a,7,8,9-hexahydropyrrolo[1′,2′:4,5]pyrazino[2,3-c]pyridazin-8-yl)oxy)-2,5-dimethylpyridin-3-yl)methyl)piperazin-1-yl)-1-oxoisoindolin-2-yl)piperidine-2,6-dione] | < 0.1 | > 75 | 0.1 to 1 | < 50
10 | Cc1c(O[C@H]2CN3c4cc(-c5cccc(F)c5O)nnc4NC[C@]3(C(F)F)C2)cnc(CN2CCN(c3ccc4c(c3)C(=O)N([C@H]3CCC(=O)NC3=O)C4)CC2)c1C [Example 46, (S)-3-(6-(4-((5-(((6aS,8R)-6a-(difluoromethyl)-2-(3-fluoro-2-hydroxyphenyl)-5,6,6a,7,8,9-hexahydropyrrolo [1′,2′:4,5]pyrazino[2,3-c]pyridazin-8-yl)oxy)-3,4-dimethylpyridin-2-yl)methyl)piperazin-1-yl)-1-oxoisoindolin-2-yl)piperidine-2,6-dione] | < 0.1 | > 75 | < 0.1 | > 75
11 | Cc1nc(CN2CCN(c3ccc4c(c3)C(=O)N([C@H]3CCC(=O)NC3=O)C4)CC2)cnc1O[C@H]1CN2c3cc(-c4cccc(F)c4O)nnc3NC[C@@]2(CF)C1 [Example 64, (S)-3-(6-(4-((5-(((6aR,8R)-2-(3-fluoro-2-hydroxyphenyl)-6a-(fluoromethyl)-5,6,6a,7,8,9-hexahydropyrrolo[1′,2′:4,5]pyrazino[2,3-c]pyridazin-8-yl)oxy)-6-methylpyrazin-2-yl)methyl)piperazin-1-yl)-1-oxoisoindolin-2-yl)piperidine-2,6-dione] | < 0.1 | > 75 | 0.1 to 1 | < 50
12 | CC[C@@]12CNc3nnc(-c4cccc(F)c4O)cc3N1C[C@H](Sc1cc(C)c(CN3CCN(c4ccc5c(c4)C(=O)N([C@H]4CCC(=O)NC4=O)C5)CC3)cn1)C2 [Example 60, 3-(6-(4-((6-(((6aR,8R)-6a-ethyl-2-(3-fluoro-2-hydroxyphenyl)-5,6,6a,7,8,9-hexahydropyrrolo[1′,2′:4,5]pyrazino[2,3-c]pyridazin-8-yl)thio)-4-methylpyridin-3-yl)methyl)piperazin-1-yl)-1-oxoisoindolin-2-yl)piperidine-2,6-dione] | < 0.1 | > 75 | < 0.1 | 50 to 75
13 | C[C@]12CNc3nnc(-c4cccc(F)c4O)cc3N1C[C@H](Oc1cc(C#N)c(CN3CCN(c4ccc5c(c4)C(=O)N([C@H]4CCC(=O)NC4=O)C5)CC3)cn1)C2 [Example 76, 5-((4-(2-((S)-2,6-dioxopiperidin-3-yl)-3-oxoisoindolin-5-yl)piperazin-1-yl)methyl)-2-(((6aS,8R)-2-(3-fluoro-2-hydroxyphenyl)-6a-methyl-5,6,6a,7,8,9-hexahydropyrrolo[1′,2′:4,5]pyrazino[2,3-c]pyridazin-8-yl)oxy)isonicotinonitrile] | < 0.1 | > 75 | < 0.1 | > 75
14 | Cc1cc(O[C@H]2CN3c4cc(-c5cccc(F)c5O)nnc4NC[C@]3(C)C2)c(C)nc1CN1CCN(c2ccc3c(c2)C(=O)N([C@H]2CCC(=O)NC2=O)C3)CC1 [Example 80, (S)-3-(6-(4-((5-(((6aS,8R)-2-(3-fluoro-2-hydroxyphenyl)-6a-methyl-5,6,6a,7,8,9-hexahydropyrrolo[1′,2′:4,5]pyrazino[2,3-c]pyridazin-8-yl)oxy)-3,6-dimethylpyridin-2-yl)methyl)piperazin-1-yl)-1-oxoisoindolin-2-yl)piperidine-2,6-dione] | < 0.1 | > 75 | < 0.1 | 50 to 75
15 | CC[C@@]12CNc3nnc(-c4cc(F)cc(F)c4O)cc3N1C[C@H](Oc1ccc(CN3CCN(c4ccc5c(c4)C(=O)N(C4CCC(=O)NC4=O)C5)CC3)cn1)C2 (stereo partly drawn) [Example 63, 3-(6-(4-((6-(((6aR,8R)-2-(3,5-difluoro-2-hydroxyphenyl)-6a-ethyl-5,6,6a,7,8,9-hexahydropyrrolo[1′,2′:4,5]pyrazino[2,3-c]pyridazin-8-yl)oxy)pyridin-3-yl)methyl)piperazin-1-yl)-1-oxoisoindolin-2-yl)piperidine-2,6-dione] | < 0.1 | > 75 | < 0.1 | > 75
